# In ChEMBL document CHEMBL5120927, “LEGO-Lipophosphonoxins: A Novel Approach in Designing Membrane Targeting Antimicrobials” (J Med Chem, 2022):
# Tests used:
# [1] = test system: Escherichia coli; assay: Antibacterial activity against Escherichia coli ATCC 25922 = CCM 3954 assessed as inhibition of bacterial growth incubated for 24 hrs in presence of BSA by microdilution assay; type: functional
# [2] = test system: Staphylococcus aureus; assay: Antibacterial activity against Staphylococcus aureus ATCC 29213 = CCM 4223 assessed as inhibition of bacterial growth incubated for 24 hrs in presence of BSA by microdilution assay; type: functional
# [3] = test system: Escherichia coli; assay: Antibacterial activity against multidrug-resistant Escherichia coli CE5556 expressing CTX-M-15 assessed as reduction in microbial growth incubated for 24 hrs by microdilution assay; type: functional
# [4] = Gradient chromatographic hydrophobicity index of the compound at pH 3.7 by HPLC analysis; type: ADME
# [5] = test system: Enterococcus faecalis; assay: Antibacterial activity against Enterococcus faecalis ATCC 29212 = CCM 4224 assessed as inhibition of bacterial growth incubated for 24 hrs by microdilution assay; type: functional
# [6] = test system: Enterococcus faecium; assay: Antibacterial activity against vancomycin resistant Enterococcus faecium 419/ANA assessed as reduction in microbial growth incubated for 24 hrs by microdilution assay; type: functional
# [7] = test system: Staphylococcus aureus; assay: Antibacterial activity against methicillin resistant Staphylococcus aureus 4591/A assessed as reduction in microbial growth incubated for 24 hrs by microdilution assay; type: functional
# [8] = test system: Staphylococcus epidermidis; assay: Antibacterial activity against Staphylococcus epidermidis CCM 7221 assessed as inhibition of bacterial growth incubated for 24 hrs by microdilution assay; type: functional
# [9] = test system: Pseudomonas aeruginosa; assay: Antibacterial activity against Pseudomonas aeruginosa ATCC 27853 = CCM 3955 assessed as inhibition of bacterial growth incubated for 24 hrs by microdilution assay; type: functional
# [10] = Hemolytic activity in human RBC assessed as haemoglobin release measured after 3 hr; type: toxicity, cell-based, Erythrocyte; details: red blood cells (erythrocytes)
# [11] = test system: Pseudomonas aeruginosa; assay: Antibacterial activity against multidrug-resistant Pseudomonas aeruginosa assessed as reduction in microbial growth incubated for 24 hrs by microdilution assay; type: functional
# [12] = test system: Staphylococcus aureus; assay: Antibacterial activity against Staphylococcus aureus ATCC 29213 = CCM 4223 assessed as inhibition of bacterial growth incubated for 24 hrs by microdilution assay; type: functional
# [13] = test system: Escherichia coli; assay: Antibacterial activity against Escherichia coli ATCC 25922 = CCM 3954 assessed as inhibition of bacterial growth incubated for 24 hrs by microdilution assay; type: functional
Compound,MIC [1],MIC [2],MIC [3],CHI [4],MIC [5],MIC [6],MIC [7],MIC [8],MIC [9],HC50 at 3 h [10],MIC [11],MIC [12],MIC [13]
Cl.Cl.Cl.Cl.Cl.Cl.NCCCN(CCCN)CCP(=O)(OCCCCCCOP(=O)(CCN(CCCN)CCCN)OCCCC1CCCCC1)OCCCC1CCCCC1 (configuration not stated),0.5 µg/mL,1 µg/mL,1 µg/mL,36.4,2 µg/mL,16 µg/mL,1 µg/mL,0.5 µg/mL,4 µg/mL,183 µg/mL,4 µg/mL,1 µg/mL,1 µg/mL
CCC/C=C\CCOP(=O)(CCN(CCCN)CCCN)OCCCCCCCCOP(=O)(CCN(CCCN)CCCN)OCC/C=C\CCC.Cl.Cl.Cl.Cl.Cl.Cl (configuration not stated),64 µg/mL,8 µg/mL,16 µg/mL,32.8,64 µg/mL,> 128 µg/mL,4 µg/mL,2 µg/mL,128 µg/mL,> 200 µg/mL,128 µg/mL,8 µg/mL,1 µg/mL
CCCC/C=C\CCOP(=O)(CCN(CCCNC(=N)N)CCCNC(=N)N)OCCCCCCOP(=O)(CCN(CCCNC(=N)N)CCCNC(=N)N)OCC/C=C\CCCC.Cl.Cl.Cl.Cl.Cl.Cl (configuration not stated),0.5 µg/mL,0.2 µg/mL,2 µg/mL,333,8 µg/mL,32 µg/mL,1 µg/mL,1 µg/mL,16 µg/mL,169 µg/mL,16 µg/mL,1 µg/mL,4 µg/mL
Cl.Cl.Cl.Cl.Cl.Cl.NCCCN(CCCN)CCP(=O)(OCCCCCCCOP(=O)(CCN(CCCN)CCCN)OCCCC(F)(F)F)OCCCC(F)(F)F (configuration not stated),> 128 µg/mL,> 128 µg/mL,> 128 µg/mL,24.6,> 128 µg/mL,> 128 µg/mL,> 128 µg/mL,128 µg/mL,> 128 µg/mL,> 200 µg/mL,> 128 µg/mL,> 128 µg/mL,128 µg/mL
Cl.Cl.Cl.Cl.Cl.Cl.NCCN(CCN)CCP(=O)(OCCCCCCOP(=O)(CCN(CCN)CCN)OCCc1ccccc1)OCCc1ccccc1 (configuration not stated),> 128 µg/mL,128 µg/mL,> 128 µg/mL,30.9,> 128 µg/mL,> 128 µg/mL,64 µg/mL,16 µg/mL,> 128 µg/mL,> 200 µg/mL,> 128 µg/mL,32 µg/mL,> 128 µg/mL
CCCCC/C=C\CCCOP(=O)(CCN(CCCN)CCCN)OCCCOP(=O)(CCN(CCCN)CCCN)OCCC/C=C\CCCCC.Cl.Cl.Cl.Cl.Cl.Cl (configuration not stated),2 µg/mL,2 µg/mL,1 µg/mL,39.8,2 µg/mL,8 µg/mL,1 µg/mL,1 µg/mL,2 µg/mL,271 µg/mL,2 µg/mL,1 µg/mL,1 µg/mL
CCCCOP(=O)(CCN(CCCN)CCCN)OCCCCCCCCOP(=O)(CCN(CCCN)CCCN)OCCCC.Cl.Cl.Cl.Cl.Cl.Cl (configuration not stated),> 128 µg/mL,> 128 µg/mL,> 128 µg/mL,11,> 128 µg/mL,> 128 µg/mL,> 128 µg/mL,64 µg/mL,> 128 µg/mL,> 100 µg/mL,> 128 µg/mL,> 128 µg/mL,128 µg/mL
CC(C)COP(=O)(CCN(CCCN)CCCN)OCCCCCCCCOP(=O)(CCN(CCCN)CCCN)OCC(C)C.Cl.Cl.Cl.Cl.Cl.Cl (configuration not stated),> 128 µg/mL,> 128 µg/mL,> 128 µg/mL,25.2,> 128 µg/mL,> 128 µg/mL,> 128 µg/mL,32 µg/mL,> 128 µg/mL,> 1000 µg/mL,> 128 µg/mL,> 128 µg/mL,> 128 µg/mL
Cl.Cl.Cl.Cl.Cl.Cl.NCCCN(CCCN)CCP(=O)(OCCCCCCOP(=O)(CCN(CCCN)CCCN)OCC1CCCC1)OCC1CCCC1 (configuration not stated),> 128 µg/mL,> 128 µg/mL,> 128 µg/mL,14.8,> 128 µg/mL,> 128 µg/mL,128 µg/mL,64 µg/mL,> 128 µg/mL,> 1000 µg/mL,> 128 µg/mL,128 µg/mL,> 128 µg/mL
CCCCC/C=C\CCCOP(=O)(CCN(CCCN)CCCN)OCCCCCCOP(=O)(CCN(CCCN)CCCN)OCCC/C=C\CCCCC.Cl.Cl.Cl.Cl.Cl.Cl (configuration not stated),1 µg/mL,1 µg/mL,1 µg/mL,40.6,1 µg/mL,2 µg/mL,0.5 µg/mL,0.5 µg/mL,2 µg/mL,43 µg/mL,2 µg/mL,0.5 µg/mL,0.5 µg/mL
Cl.Cl.Cl.Cl.Cl.Cl.NCCCN(CCCN)CCP(=O)(OCCCCCCCCCCCCOP(=O)(CCN(CCCN)CCCN)OCCc1ccccc1)OCCc1ccccc1 (configuration not stated),8 µg/mL,2 µg/mL,16 µg/mL,34.8,4 µg/mL,32 µg/mL,4 µg/mL,0.5 µg/mL,8 µg/mL,358 µg/mL,8 µg/mL,1 µg/mL,4 µg/mL
CCCCCCCCCCOP(=O)(CCN(CCCN)CCCN)OCCCCCCCCCCOP(=O)(CCN(CCCN)CCCN)OCCCCCCCCCC.Cl.Cl.Cl.Cl.Cl.Cl (configuration not stated),16 µg/mL,1 µg/mL,2 µg/mL,46.9,2 µg/mL,2 µg/mL,1 µg/mL,1 µg/mL,4 µg/mL,5.2 µg/mL,4 µg/mL,2 µg/mL,> 2 µg/mL
CCCCCCCCOP(=O)(CCN(CCN)CCN)OCCCCCCCCOP(=O)(CCN(CCN)CCN)OCCCCCCCC.Cl.Cl.Cl.Cl.Cl.Cl (configuration not stated),5 µg/mL,0.2 µg/mL,1 µg/mL,45.2,1 µg/mL,2 µg/mL,3 µg/mL,0.2 µg/mL,1 µg/mL,19 µg/mL,1 µg/mL,0.5 µg/mL,64 µg/mL
CCCCC/C=C\CCOP(=O)(CCN(CCCNC(=N)N)CCCNC(=N)N)OCCCCCOP(=O)(CCN(CCCNC(=N)N)CCCNC(=N)N)OCC/C=C\CCCCC.Cl.Cl.Cl.Cl.Cl.Cl (configuration not stated),1 µg/mL,1 µg/mL,1 µg/mL,36.4,4 µg/mL,8 µg/mL,1 µg/mL,1 µg/mL,8 µg/mL,121 µg/mL,8 µg/mL,1 µg/mL,1 µg/mL
